Structures are written as SMILES.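 Briefly, cells in 96-well plates were exposed to five compound concentrations for 48 h, and endpoints were estimated by linear interpolation. GI50 marks 50% less growth. TGI is the concentration that stops growth completely.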

Among the test systems are 786-0 renal; OVCAR-8 ovarian; SF-268 CNS; K-562 leukemia; NCI-H522 lung; SF-539 CNS; UO-31 renal; HOP-62 NSCLC; SNB-19 CNS; DU-145 prostate.
What all share (test): DTP human tumour cell line panel, 48 h

The TGI is the concentration at which net growth stops. Consider `CCCCC1(C(NC(=O)c2ccccc2Cl)c2ccncc2)C(=O)N(c2ccccc2)N(c2ccccc2)C1=O` (stereo not drawn), for which the total growth inhibition concentration (TGI) in the assay with 786-0 renal, in the assay on OVCAR-8 ovarian, in the assay with SF-268 CNS, with K-562 leukemia, in the assay on NCI-H522 lung and in the assay on SF-539 CNS was greater than 100 µM each time. In addition, the TGI in the assay on UO-31 renal, in the assay on HOP-62 NSCLC and in the assay on SNB-19 CNS was greater than 100 µM each time.
One may read the GI50 as the concentration giving 50% growth inhibition. In the case of `N#Cc1cc(S(=O)(=O)Nc2nc3cc(Cl)ccc3o2)c(SCc2ccccc2)cc1Cl`, the GI50 in the assay on 786-0 renal is 15.7 µM; with OVCAR-8 ovarian, 14.2 µM; in the assay on SF-268 CNS it was 14.7 µM; with K-562 leukemia, 14.3 µM; in the assay with NCI-H522 lung, 11.6 µM; in the assay on SF-539 CNS, 13.5 µM. Besides, the GI50 is 12.3 µM with UO-31 renal, 12.3 µM in the assay on HOP-62 NSCLC and 13.6 µM in the assay on SNB-19 CNS. In addition, the TGI was 29.1 µM with 786-0 renal; 27.3 µM in the assay on OVCAR-8 ovarian; 32.2 µM with SF-268 CNS; 27.4 µM with K-562 leukemia; 25 µM in the assay on NCI-H522 lung; 26.4 µM in the assay with SF-539 CNS. For the same compound, the results for the TGI in the assay on UO-31 renal, in the assay on HOP-62 NSCLC and in the assay on SNB-19 CNS were 24.7 µM, 24.8 µM and 26.5 µM, respectively.
As to `O=C1CCC(=O)N1Sc1ccccc1`, the TGI in the assay with 786-0 renal, with OVCAR-8 ovarian, in the assay with SF-268 CNS, in the assay on K-562 leukemia, with NCI-H522 lung and in the assay with SF-539 CNS was greater than 100 µM in each case. For the same compound, the TGI in the assay on UO-31 renal, in the assay on HOP-62 NSCLC and in the assay with SNB-19 CNS was greater than 100 µM each time.
Take `Cc1ccc2ccc(-c3ccccc3)c3c2c1C(=O)c1ccccc1C3=O`: the TGI in the assay on 786-0 renal, with OVCAR-8 ovarian, in the assay on SF-268 CNS, in the assay on K-562 leukemia, with NCI-H522 lung and in the assay with SF-539 CNS was greater than 100 µM each time. The TGI in the assay on UO-31 renal, in the assay with HOP-62 NSCLC and in the assay with SNB-19 CNS was greater than 100 µM each time.
With `OCC(O)C(O)C(O)c1nn(-c2ccc(F)cc2)c2nc3cc(Cl)c(Cl)cc3nc12` (stereo not drawn), the TGI was found to be 81.9 µM in the assay with 786-0 renal; 23 µM in the assay with OVCAR-8 ovarian; 43.3 µM with SF-268 CNS; 43.2 µM in the assay with K-562 leukemia; 31.4 µM in the assay on NCI-H522 lung; 39.2 µM in the assay with SF-539 CNS. The results for the TGI in the assay on UO-31 renal, in the assay with HOP-62 NSCLC and in the assay with SNB-19 CNS were greater than 100 µM, 28.8 µM and 38 µM, respectively.
With `COc1ccc(Br)c(C(=O)N2CCc3ccccc32)c1N`, the total growth inhibition concentration (TGI) in the assay on 786-0 renal was greater than 100 µM; in the assay with OVCAR-8 ovarian it was greater than 100 µM; in the assay with K-562 leukemia it was greater than 100 µM; in the assay on NCI-H522 lung, 36.8 µM; in the assay on SF-539 CNS, 97 µM; in the assay with UO-31 renal, greater than 100 µM. For the same compound, the TGI in the assay on HOP-62 NSCLC and in the assay on SNB-19 CNS was greater than 100 µM each time.
For the compound `O=c1oc2c3ccc4ccccc4c3n(CCN3CCCCC3)c2c2ccccc12`, the TGI with 786-0 renal was 27.9 µM; in the assay on OVCAR-8 ovarian, greater than 67.3 µM; in the assay on SF-268 CNS, greater than 68.7 µM; with K-562 leukemia, greater than 100 µM; in the assay with NCI-H522 lung, greater than 100 µM; in the assay on SF-539 CNS it was greater than 49.4 µM. In addition, the total growth inhibition concentration (TGI) was greater than 100 µM with UO-31 renal, 58.9 µM in the assay on HOP-62 NSCLC and greater than 100 µM in the assay on SNB-19 CNS.
Turning to `COc1cccc(/C=N\NC(=O)C(C)SC(C)C(=O)N/N=C/c2cccc(OC)c2)c1` (stereo not drawn), the TGI with 786-0 renal is 31.6 µM; with OVCAR-8 ovarian it was 70 µM; in the assay on SF-268 CNS, 97.5 µM; in the assay on K-562 leukemia it was greater than 100 µM; with NCI-H522 lung, 59.1 µM; with SF-539 CNS, greater than 100 µM. For the same compound, the values for the TGI in the assay on UO-31 renal, in the assay on HOP-62 NSCLC and in the assay on SNB-19 CNS were greater than 85.5 µM, 33.1 µM and 45.5 µM, respectively.
In the case of `Cc1ccc(S(=O)C(C)C(Cl)c2ccccc2)cc1` (stereo not drawn), the TGI with 786-0 renal, with OVCAR-8 ovarian, in the assay with SF-268 CNS, in the assay with K-562 leukemia, in the assay on NCI-H522 lung and in the assay on SF-539 CNS was greater than 100 µM throughout. Besides, the concentration for total growth inhibition (TGI) in the assay with UO-31 renal and in the assay with HOP-62 NSCLC was greater than 100 µM each time.
With `Cn1cnnc1[S-].[Au+].c1ccc([PH+](c2ccccc2)c2ccccc2)cc1`, the GI50 in the assay on 786-0 renal was 1.72 µM; in the assay with DU-145 prostate, 1.34 µM; in the assay on SF-268 CNS it was 1.7 µM; in the assay on SF-539 CNS it was 1.61 µM; in the assay with UO-31 renal it was 1.65 µM; in the assay on SNB-19 CNS it was 1.62 µM. Besides, the total growth inhibition concentration (TGI) was found to be 3.15 µM in the assay with 786-0 renal; 2.66 µM with DU-145 prostate; 3.44 µM in the assay on SF-268 CNS; 3 µM in the assay with SF-539 CNS; 3.01 µM in the assay with UO-31 renal; 3.02 µM in the assay on SNB-19 CNS.
For the compound `C1=CC2CCC1CN2CCC1CNc2ccccc21` (stereo not drawn), the TGI with 786-0 renal, with OVCAR-8 ovarian, in the assay with SF-268 CNS, with K-562 leukemia, in the assay with NCI-H522 lung and with SF-539 CNS was greater than 100 µM in each case. Moreover, the TGI in the assay on UO-31 renal, with HOP-62 NSCLC and with SNB-19 CNS was greater than 100 µM each time.
As for `O=C(/C=C/c1ccccc1O)c1ccccc1Cl`, the TGI in the assay on 786-0 renal was greater than 100 µM; in the assay on OVCAR-8 ovarian, greater than 100 µM; with SF-268 CNS, greater than 100 µM; in the assay on K-562 leukemia, greater than 100 µM; in the assay with NCI-H522 lung, 80.4 µM; in the assay with SF-539 CNS it was greater than 100 µM. Besides, the TGI in the assay with UO-31 renal, in the assay with HOP-62 NSCLC and in the assay with SNB-19 CNS was greater than 100 µM in each case.
For `CC1(C)OC(=O)C(=C2CCC(C(=O)Nc3cccc(C(F)(F)F)c3)N2)C(=O)O1` (stereo not drawn), the TGI in the assay on 786-0 renal, in the assay on OVCAR-8 ovarian, in the assay on SF-268 CNS, in the assay on K-562 leukemia, in the assay with NCI-H522 lung and with SF-539 CNS was greater than 100 µM in each case. Moreover, the total growth inhibition concentration (TGI) in the assay with UO-31 renal, with HOP-62 NSCLC and in the assay with SNB-19 CNS was greater than 100 µM each time.
Consider `Cc1ccc(C2CC(c3ccc(Nc4ccnc5cc(Cl)ccc45)cc3)=NN2C=O)cc1` (stereo not drawn), for which the GI50 in the assay with 786-0 renal was 50.9 µM; in the assay with OVCAR-8 ovarian it was greater than 100 µM; with DU-145 prostate, greater than 100 µM; in the assay with SF-268 CNS it was 8.61 µM; with SF-539 CNS it was greater than 100 µM; in the assay with UO-31 renal, 5.49 µM. The GI50 in the assay on HOP-62 NSCLC and with SNB-19 CNS was greater than 100 µM each time. Moreover, the TGI in the assay on 786-0 renal, in the assay on OVCAR-8 ovarian, with DU-145 prostate, in the assay with SF-268 CNS, in the assay on SF-539 CNS and in the assay on UO-31 renal was greater than 100 µM each time. For the same compound, the TGI with HOP-62 NSCLC and in the assay on SNB-19 CNS was greater than 100 µM in each case.
On to `Cc1cc(C)nc(NS(=O)(=O)c2ccc(Nc3c4ccccc4nc4c(C(=O)NCCN(C)C)cccc34)cc2)n1`, for which the TGI amounted to 25.2 µM with 786-0 renal; 20.5 µM with OVCAR-8 ovarian; 20.1 µM with SF-268 CNS; 17.8 µM with K-562 leukemia; 4.28 µM in the assay with NCI-H522 lung; 14.9 µM in the assay on SF-539 CNS. Besides, the TGI is 5.89 µM in the assay with UO-31 renal, 14.5 µM in the assay with HOP-62 NSCLC and 10.7 µM in the assay on SNB-19 CNS.
As for `Cc1cc(Cl)ccc1NC(=O)C1C(=O)N(c2ccc(Cl)cc2C)C(=O)/C1=N\NC(N)=S` (stereo not drawn), the TGI with 786-0 renal was greater than 100 µM; in the assay on OVCAR-8 ovarian, greater than 100 µM; in the assay with SF-268 CNS, greater than 100 µM; in the assay on K-562 leukemia, 57.8 µM; in the assay with NCI-H522 lung it was 34.4 µM; in the assay on SF-539 CNS it was 70.6 µM. Besides, the TGI in the assay with UO-31 renal was 41.1 µM; in the assay with HOP-62 NSCLC it was 48.5 µM; in the assay on SNB-19 CNS, greater than 100 µM.
In the case of `COc1cc(OC)c2c(=O)c3cccc([N+](=O)[O-])c3n(C)c2c1`, the TGI in the assay with 786-0 renal, with OVCAR-8 ovarian, with SF-268 CNS, with K-562 leukemia, in the assay on NCI-H522 lung and in the assay with SF-539 CNS was greater than 100 µM throughout. Besides, the TGI with UO-31 renal and in the assay with SNB-19 CNS was greater than 100 µM each time.
Take `N#CCc1cccc(CC#N)c1Br`: the concentration for total growth inhibition (TGI) in the assay with 786-0 renal, with OVCAR-8 ovarian, in the assay with SF-268 CNS, in the assay on K-562 leukemia, in the assay with NCI-H522 lung and in the assay on SF-539 CNS was greater than 100 µM each time. In addition, the TGI in the assay with UO-31 renal, in the assay on HOP-62 NSCLC and in the assay on SNB-19 CNS was greater than 100 µM throughout.
As for `O=C(O)CSc1n[nH]c(-c2ccco2)n1`, the TGI in the assay with 786-0 renal, in the assay with OVCAR-8 ovarian, with K-562 leukemia, with NCI-H522 lung, in the assay on SF-539 CNS and in the assay on UO-31 renal was greater than 100 µM in each case. The TGI in the assay with HOP-62 NSCLC and in the assay with SNB-19 CNS was greater than 100 µM in each case.
Regarding `O=C1OC(=O)C([Se]c2ccccc2)=C1[Se]c1ccccc1`, the total growth inhibition concentration (TGI) in the assay with 786-0 renal, with OVCAR-8 ovarian, with SF-268 CNS, in the assay on K-562 leukemia, with NCI-H522 lung and with SF-539 CNS was greater than 100 µM in each case. Besides, the TGI in the assay with HOP-62 NSCLC and in the assay with SNB-19 CNS was greater than 100 µM in each case.
For the compound `COc1cc2c(c(OC)c1OC)C(=O)NCCC2`, the TGI with 786-0 renal, in the assay with OVCAR-8 ovarian, with SF-268 CNS, in the assay on K-562 leukemia, with NCI-H522 lung and in the assay with SF-539 CNS was greater than 100 µM each time. In addition, the TGI in the assay with UO-31 renal, in the assay with HOP-62 NSCLC and with SNB-19 CNS was greater than 100 µM throughout.
